PubChem BioAssay (NCI)
Where “and” joins values, the source holds several entries; their conditions need not be identical. Equal entries are not always repeated.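 Dose response: 5 concentrations. Exposure: 48 h. Format: 96-well plates. Endpoint: linear interpolation; highest concentration if not reached. GI50 is the concentration that inhibits growth by half. TGI: total growth inhibition.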

Columns and labels:
Experiment in all cases: NCI tumour cell line growth inhibition, 48 h
[1] = system: HOP-92 NSCLC
[2] = system: LOX IMVI melanoma
[3] = system: MDA-MB-435
[4] = system: OVCAR-5 ovarian
[5] = system: RPMI-8226 leukemia
[6] = system: SF-268 CNS
[7] = system: SK-MEL-28 melanoma
[8] = system: SW-620 colon
[9] = system: OVCAR-4 ovarian
[10] = system: T-47D breast

## CCOC1Oc2ccccc2C(=O)/C1=C\Nc1ccc(C(=O)O)c(O)c1 (centres undefined)
[1]
  GI50: 19.6 µM
  TGI: 60.6 µM
[2]
  GI50: 18.2 µM
  TGI: 46.8 µM
[3]
  GI50: 20.4 µM
  TGI: 44.4 µM
[4]
  GI50: 43.2 µM
  TGI: > 100 µM
[5]
  GI50: 20 µM
  TGI: > 100 µM
[6]
  GI50: 26.1 µM
  TGI: 80.8 µM
[7]
  GI50: 23.9 µM
  TGI: 65.9 µM
[8]
  GI50: 30.8 µM
  TGI: > 100 µM

## O=C(C(=O)c1cccnc1)c1cccnc1
[1]
  GI50: > 100 µM
  TGI: > 100 µM
[2]
  GI50: > 100 µM
  TGI: > 100 µM
[3]
  GI50: > 100 µM
  TGI: > 100 µM
[9]
  GI50: > 100 µM
  TGI: > 100 µM
[4]
  GI50: > 100 µM
  TGI: > 100 µM
[5]
  GI50: > 100 µM
  TGI: > 100 µM
[6]
  GI50: > 100 µM
  TGI: > 100 µM
[7]
  GI50: > 100 µM
  TGI: > 100 µM
[8]
  GI50: > 100 µM
  TGI: > 100 µM
[10]
  GI50: > 100 µM
  TGI: > 100 µM

## CCc1c2c(nc3ccc(OC(=O)OCc4ccc(B5OC(C)(C)C(C)(C)O5)cc4)cc13)-c1cc3c(c(=O)n1C2)COC(=O)[C@]3(O)CC
[1]
  GI50: 0.0269 µM
  TGI: 14.4 µM
[2]
  GI50: < 0.01 µM
  TGI: 0.196 µM
[3]
  GI50: 0.0523 µM
  TGI: 1.53 µM
[9]
  GI50: 0.21 µM
  TGI: > 30.8 µM
[4]
  GI50: 0.114 µM
  TGI: 6.23 µM
[5]
  GI50: 0.224 µM
[6]
  GI50: < 0.01 µM
  TGI: 1.69 µM
[7]
  GI50: 0.262 µM
  TGI: 7.32 µM
[8]
  GI50: < 0.0127 µM
[10]
  GI50: < 0.01 µM
  TGI: > 100 µM

## CN(CO)c1nc(N(C)CO)nc(N(C)CO)n1
[1]
  GI50: 29.9 µM and 27.3 µM
  TGI: 64.9 µM and 64.1 µM
[2]
  GI50: 16.2 µM
  TGI: 36.6 µM and 26.8 µM
[3]
  TGI: 40.3 µM
[9]
  GI50: 18.9 µM and 23.8 µM
  TGI: 39.1 µM and 55.6 µM
[4]
  TGI: 63 µM and > 73.8 µM
[5]
  GI50: 27.5 µM
  TGI: > 91.4 µM and 43.4 µM
[6]
  GI50: 26.2 µM and 18.5 µM
  TGI: 64.1 µM and 70.2 µM
[7]
  GI50: 18.3 µM
  TGI: 36.7 µM and 28.4 µM
[8]
  GI50: 11.5 µM
  TGI: 43.6 µM and 70.6 µM
[10]
  GI50: 25 µM
  TGI: 67.7 µM and 211 µM

## O=C(CCN1CCCC1)Nc1ccc2c(Nc3ccc(Br)cc3)c3ccccc3nc2c1
[1]
  GI50: 1.31 µM
  TGI: 2.71 µM
[2]
  GI50: 1 µM
  TGI: 2.24 µM
[3]
  GI50: 1.68 µM
  TGI: 3.1 µM
[9]
  GI50: 1.51 µM
  TGI: 2.92 µM
[4]
  GI50: 1.63 µM
  TGI: 3.03 µM
[5]
  GI50: 1.73 µM
  TGI: 6.07 µM
[6]
  GI50: 1.33 µM
  TGI: 2.81 µM
[7]
  GI50: 1.63 µM
  TGI: 3.02 µM
[8]
  GI50: 1.24 µM
  TGI: 2.64 µM

## CCCCCCCCCCCCSC1=CC(=O)C=CC1=O
[1]
  GI50: 2.56 µM
  TGI: 12.6 µM
[2]
  GI50: 1.25 µM
  TGI: 4.3 µM
[3]
  GI50: 15.6 µM
  TGI: > 50 µM
[9]
  GI50: 2.17 µM
  TGI: 9 µM
[4]
  GI50: 11.8 µM
  TGI: > 42 µM
[5]
  GI50: 0.804 µM
  TGI: 3.46 µM
[6]
  GI50: 2.24 µM
  TGI: 10.4 µM
[7]
  GI50: 13.6 µM
  TGI: > 39.9 µM
[8]
  GI50: 17.9 µM
  TGI: > 50 µM
[10]
  GI50: 0.893 µM
  TGI: 3.58 µM

## CC[C@H](C)C(=O)O[C@H]1CCC=C2C=C[C@H](C)[C@H](CC[C@@H]3C[C@@H](O)CC(=O)O3)[C@H]21
[1]
  GI50: 0.135 µM
  TGI: 0.706 µM
[2]
  GI50: 1.07 µM
  TGI: 6.53 µM
[3]
  GI50: 7.51 µM
  TGI: > 100 µM
[9]
  GI50: 19.8 µM
  TGI: > 100 µM
[4]
  GI50: 14.4 µM
  TGI: > 100 µM
[5]
  GI50: 13.1 µM
  TGI: > 75.9 µM
[6]
  GI50: 2.14 µM
  TGI: > 100 µM
[7]
  GI50: 15.3 µM
  TGI: > 100 µM
[8]
  GI50: 11.8 µM
  TGI: > 100 µM
[10]
  GI50: 21.9 µM
  TGI: > 100 µM

## CCCn1cc(/C=N\N=C2\C(=O)Nc3ccc(C)cc32)c2ccccc21
[1]
  GI50: 1.87 µM
  TGI: 6.57 µM
[2]
  GI50: 1.26 µM
  TGI: 3.06 µM
[3]
  GI50: 1.5 µM
  TGI: 2.96 µM
[9]
  GI50: 0.935 µM
  TGI: 25.6 µM
[4]
  GI50: 4.04 µM
  TGI: 25.8 µM
[5]
  GI50: 1.33 µM
  TGI: 3.96 µM
[6]
  GI50: 3.33 µM
  TGI: 28 µM
[7]
  GI50: 4.7 µM
  TGI: 36.9 µM
[8]
  GI50: 2.97 µM
  TGI: 35.3 µM
[10]
  GI50: 0.416 µM
  TGI: 18.4 µM

## C#Cc1cccc(Nc2ncnc3ccc(-c4cnc(N)nc4)cc23)c1
[1]
  GI50: 0.211 µM
  TGI: 3.15 µM
[2]
  GI50: 2.78 µM
  TGI: 11.3 µM
[3]
  GI50: 3.58 µM
  TGI: 15.6 µM
[9]
  GI50: 2.59 µM
  TGI: 14.8 µM
[4]
  GI50: 1.33 µM
  TGI: 14.6 µM
[5]
  GI50: 1.43 µM
  TGI: 5.41 µM
[6]
  GI50: 1.79 µM
  TGI: 20.6 µM
[7]
  GI50: 3.2 µM
  TGI: 16 µM
[8]
  GI50: 4.23 µM
  TGI: 17.7 µM
[10]
  GI50: 0.664 µM
  TGI: 4.62 µM

## COc1ccc(C(=O)/C=C/c2c(C(F)(F)F)nc3ccccn23)cc1OC
[2]
  GI50: 0.584 µM
[3]
  GI50: 1.15 µM
  TGI: > 100 µM
[9]
  GI50: 3.28 µM
  TGI: > 48.6 µM
[5]
  GI50: 0.362 µM
  TGI: 1.67 µM
[6]
  GI50: 2.07 µM
  TGI: > 24.7 µM
[7]
  GI50: 7.1 µM
  TGI: > 100 µM
[8]
  GI50: 0.527 µM
  TGI: > 100 µM
[10]
  GI50: 1.78 µM
  TGI: 6.21 µM

## O=[N+]([O-])c1cc(C(F)(F)F)cc2n[se]nc12
[1]
  TGI: 5.1 µM
[2]
  TGI: 14.4 µM
[3]
  TGI: 4.78 µM
[9]
  TGI: 3.84 µM
[4]
  TGI: 26.4 µM
[5]
  TGI: 2.89 µM
[6]
  TGI: 15.3 µM
[7]
  TGI: 4.39 µM
[8]
  TGI: 3.11 µM
[10]
  TGI: 10.4 µM

## COc1cc2c(cc1OC)-c1c(c3ccc([N+](=O)[O-])cc3c(=O)n1CCCN=[N+]=[N-])C2=O
[2]
  GI50: 25.3 µM
  TGI: > 100 µM
[3]
  GI50: > 100 µM
  TGI: > 100 µM
[9]
  GI50: > 100 µM
  TGI: > 100 µM
[4]
  GI50: > 100 µM
  TGI: > 100 µM
[6]
  GI50: 41.7 µM
  TGI: > 100 µM
[7]
  GI50: > 100 µM
  TGI: > 100 µM
[8]
  GI50: 99.8 µM
  TGI: > 100 µM
[10]
  GI50: > 100 µM
  TGI: > 100 µM

## CCCCNP1(NCCCC)=NP(NCCCC)(NCCCC)=NP(NCCCC)(NCCCC)=NP(NCCCC)(NCCCC)=N1
[1]
  GI50: 0.0514 µM
  TGI: 0.917 µM
[2]
  GI50: 0.29 µM
  TGI: 2.11 µM
[3]
  GI50: 0.931 µM
  TGI: 6.51 µM
[9]
  GI50: 0.18 µM
  TGI: 18.1 µM
[4]
  GI50: 1.61 µM
  TGI: 9.81 µM
[6]
  GI50: 1.53 µM
  TGI: 21.2 µM
[7]
  GI50: 2.64 µM
  TGI: 8.68 µM
[8]
  GI50: 0.861 µM
  TGI: 15.9 µM
[10]
  GI50: 0.26 µM
  TGI: 3.07 µM
